Results from publication PMC8335727 (Inorganic Chemistry, 2021).
Where two headings read alike, the source gives them in different places.

How the values were obtained:
MRC-5 = test: MTT cytotoxicity assay, MRC-5; type: cell-based; settings: Homo sapiens, MRC5, 72 h of exposure
Protocol: (§1) 2.5. In vitro cell studies
(§2) 2.5.1. Cell lines and culture conditions
All cell culture reagents were obtained from Sigma-Aldrich and plastic ware from Sarstedt […]
(§3) MRC-5 human embryonal lung fibroblast cell line (ATCC CCL-171) was purchased from LGC
(§4) Promochem, Teddington, UK. The cell line was cultured in Eagle’s Minimal Essential Medi um
(§5) (EMEM, containing 4.5 g/L glucose) supplemented with a non-essential amino acid mixture, a
(§6) selection of vitamins and 10% heat-inactivated fetal bovine serum. The cells were incubated at
(§7) 37°C, in a 5% CO2, 95% air atmosphere. All cell lines were detached with Trypsin-Versene
(§8) (EDTA) solution for 5 min at 37 °C.
(§9) The tested compounds were dissolved in DMSO using 10 mM concentration. Then stock solutions
(§10) were diluted in complete culture medium in 96-well microtiter plates, and two-fold serial dilutions
(§11) of compounds were prepared in 100 µL of RPMI 1640, horizontally. The semi-adherent colonic
(§12) adenocarcinoma cells were treated with Trypsin -Versene (EDTA) solution. They were adjusted to
(§13) a density of 1×10^4 cells in 100 µL of RPMI 1640 medium, and were added to each well, with the
(§14) exception of the medium control wells. The final volume of the wells containing compounds and
(§15) cells was 200 µL. The culture were incubated at 37 °C for 72 h; at the end of the incubation period,
(§16) 20 µL of MTT solution (from a stock solution of 5 mg/mL) were added to each well. After
(§17) incubation at 37 °C for 4 h, 100 µL of SDS solution (10% in 0.01 M HCI) were added to each well
(§18) and the plates were further incubated at 37 °C overnight. The cell growth was determined using
(§19) both methods by measuring the optical density (OD) at 450 nm (ref. 620 nm) with a Multiscan EX
(§20) ELISA reader. Inhibition of the cell growth (expressed as IC 50: inhibitory concentration that
(§21) reduces by 50% the growth of the cells exposed to the tested compounds) was determined from
(§22) the sigmoid curve where 100 – ((ODsample ‒ ODmedium control)/(ODcell control ‒ ODmedium control)) × 100
(§23) values were plotted against the logarithm of compound concentrations. […]

mouse R2 RNR protein = target: T1, mouse R2 RNR protein (Mus musculus, UniProt P11157); test: Tyrosyl radical reduction in mouse R2 RNR protein (EPR); type: biochemical; settings: 2 mM DTT
T1 construct: made in house
T1 sequence (P11157 1-390): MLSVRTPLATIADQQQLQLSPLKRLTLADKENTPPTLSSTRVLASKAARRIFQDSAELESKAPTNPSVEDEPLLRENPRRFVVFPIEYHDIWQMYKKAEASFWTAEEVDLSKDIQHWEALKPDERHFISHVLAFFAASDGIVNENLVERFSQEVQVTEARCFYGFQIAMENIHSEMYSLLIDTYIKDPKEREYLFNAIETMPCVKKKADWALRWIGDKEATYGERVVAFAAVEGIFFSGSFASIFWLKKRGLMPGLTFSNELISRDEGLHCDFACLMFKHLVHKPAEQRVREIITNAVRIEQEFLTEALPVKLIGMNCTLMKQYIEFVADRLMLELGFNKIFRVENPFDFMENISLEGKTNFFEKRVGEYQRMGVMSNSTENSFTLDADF
Protocol: The time-dependent tyrosyl radical reduction in mR2 RNR by equimolar concentrations of TSCs and their respective copper(II) complexes, under reducing conditions, is shown in Figure 15. […] The favorable impact of the copper(II) coordination on the HL^2 inhibitory activity is quite obvious, when the ability to quench the tyrosyl radical by HL^2 is compared to that of 2′.
The samples contained 20 μM mR2 in 50 mM HEPES buffer, pH 7.60/100 mM KCl, 20 μM compound in 1% (v/v) DMSO/H2O, and 2 mM DTT. […]
2.6. Tyrosyl radical reduction in mouse R2 RNR protein
The tyrosyl radical reduction in mR2 protein by HL1, HL2, HL3, Cu(HL1)Cl2, [Cu(L2)Cl],
Cu(HL3)Cl2, HL1a’, HL1a’’, and HL2c´·CH3COOH was measured by EPR spectroscopy at 30 K,
on a Bruker Elexsys II E540 EPR spectrometer with an Oxford Instruments ER 4112HV helium
cryostat, as described previously.12,13 mR2 protein was expressed, purified, and iron -reconstituted
as described previously, 14 and passed through a 5 mL HiTrap desalting column (GE Healthcare)
(§24) 0.76 tyrosyl radical/polypeptide. Samples containing 20 µM mR2 in 50 mM HEPES buffer, pH
(§25) 7.50/100 mM NaCl, and 20 µM respective compound in 1% (v/v) DMSO/H2O, and 2 mM
dithiothreitol (DTT) were incubated for indicated times and quickly frozen in cold isopentane. The
same samples were used for repeated incubations at room temperature. […]
Furthermore, the intrinsic reaction coordinate (IRC) analysis was
performed to authenticate that the transition state pertains to the desired reaction coordinate. The
IRC calculations were done at the B3LYP/6-311++G(d,p) level of theory. Molecular orbitals were
drawn using Molekel software.17
3. Schemes for assignment of resonances in HL1 – HL3 and their isomers
Scheme S1. The atom numbering for the assignment of resonances in HL1 – HL3.
(1 picture or pasted object on this page, not shown here)

Colo320 [1] = test: MTT cytotoxicity assay, Colo320; type: cell-based; settings: Homo sapiens, COLO 320, 72 h of exposure
Protocol: (§26) The in vitro cytotoxicity of the TSCs HL^1–HL^3, copper(II) complexes Cu(HL^1)Cl2, [Cu(L^2)Cl], and Cu(HL^3)Cl2, and oxidized TSCs HL^1a′, HL^1a″, and HL^2c′·CH3COOH was tested in the doxorubicin-sensitive Colo205 and the multidrug-resistant Colo320 human colonic adenocarcinoma cell lines as well as in normal human embryonal lung fibroblast cells (MRC-5) by the colorimetric MTT assay. […]
as §1, §2
(§27) All cell culture reagents were obtained from Sigma-Aldrich and plastic ware from Sarstedt
(§28) (Germany). Doxorubicin-sensitive human colonic Colo 205 and multidrug resistant
(§29) Colo 320/MDR-LRP adenocarcinoma cell lines were purchased from LGC Promochem,
(§30) Teddington, UK. The cells were cultured in Roswell Park Memorial Institute (RPMI) 1640
(§31) medium supplemented with 10% heat-inactivated fetal bovine serum, 2 mM L-glutamine, 1 mM
(§32) Na-pyruvate and 100 mM Hepes. The cell lines were incubated at 37°C, in a 5% CO2, 95% air
as §3, §4, §5, §6, §7, §8, §9, §10, §11, §12, §13, §14, §15, §16, §17, §18, §19, §20, §21, §22, §23, §24, §25

Colo205 [2] = test: MTT cytotoxicity assay, Colo205; type: cell-based; settings: Homo sapiens, COLO 205, 72 h of exposure
Protocol: as §26, §1, §2, §27, §28, §29, §30, §31, §32, §3, §4, §5, §6, §7, §8, §9, §10, §11, §12, §13, §14, §15, §16, §17, §18, §19, §20, §21, §22, §23, §24, §25

Colo320 cells = test: Annexin-V-FITC/PI apoptosis induction assay (flow cytometry); type: cell-based, human; settings: 3 h induction
Protocol: To gain further insights into the cytotoxic behavior of the compounds, apoptosis induction by lead compounds HL^1 and [Cu(L^2)Cl] was investigated by a flow cytometry analysis of multidrug-resistant Colo320 cells stained with Annexin-V-FITC and propidium iodide (PI).
Colo320 cells were treated at the indicated concentration of the drugs. The dual parametric dot plots that combine the Annexin-V (FL1) and PI (FL3) fluorescence show the viable cell population in the lower-left quadrant Annexin-V–/PI– (Q4), the early apoptotic cells in the lower-right quadrant Annexin-V+/PI– (Q3), and the late apoptotic and necrotic cells in the upper-right quadrant Annexin-V+/PI+ (Q2). […]
2.5.3. Mechanisms of cell death: assay for apoptosis induction
The assay was carried out for selected compounds using an Annexin V-FITC Apoptosis Detection
Kit (Cat. No. APOAF-50TST) from Sigma according to the manufacturer's instructions. The
concentration of the Colo320 cell suspension was adjusted to approximately 0.5 × 10^6 cells per
mL in RPMI medium and the cell suspension was distributed in 1 mL aliquots into a 24-well plate,
and then incubated overnight at 37 °C and 5% CO2. On the following day, the medium was
removed and replaced by 1 mL RPMI medium containing the compounds except the control
samples. Colo320 cells were incubated in the presence of the compounds at 4 and 8 μM (HL1), or
0.25 and 0.50 μM (Cu(HL2)Cl2) in the 24-well plate at 37 °C for 3 h, and 12H-
controls. After the incubation period the samples were washed with PBS and fresh RPMI medium
was added to the samples. The cells were incubated overnight at 37 °C and 5% CO2. The next day,
200 μL 0.25% Trypsin (Trypsin-Versen) was added to the samples until cells appeared detached
followed by the addition of 400 μL of RPMI medium supplemented with 10% bovine serum. The
cells were collected in Eppendorf tubes and centrifuged at 2000 g for 2 min. The harvested cells
were resuspended in fresh serum free RPMI medium culture medium. After this step, the apoptosis
assay was carried out according to the instructions of the manufacturer. The fluorescence was
analyzed immediately using a ParTec CyFlow flow cytometer (Partec GmbH, Münster, Germany). […]

Colo320 [3] = test system: Colo320; design: method as in doi:10.1039/D0NJ01070G; settings: 72 h of exposure; ref [77]; cited from earlier work
Colo205 [4] = test system: Colo205; design: method as in doi:10.1039/D0NJ01070G; settings: 72 h of exposure; ref [77]; cited from earlier work
[5] = design: method as in earlier work; settings: cited from earlier work
[6] = pH 7.4; cited from earlier work
[7] = test system: SW480, MES-SA, MES-SA/Dx5, HL60, 41M, SK-BR-3; design: method as in PMID 32336116, PMID 22189939, PMID 31250199; settings: several human cancer cells; ref [36],[58],[80]; read-out: IC50 values reported; cited from earlier work

CC(=NNc1nc2cc(C)c(O)c(C)c2s1)c1ccccn1 [HL^2c′·CH3COOH]
IC50 (MRC-5): 2150 ± 100 nM
tyrosyl radical reduction (comparison in words) (mouse R2 RNR protein; 20 μM compound): as potent as HL^3
IC50 (Colo320 [1]): 188 ± 41 nM
IC50 (Colo205 [2]): 2730 ± 59 nM

c1ccc2c(c1)Nc1c(ccc3ccccc13)S2 [M627, 12H-Benzophenothiazine, reference compound]
Cell death % Q1 (Colo320 cells; 10 µM): 4.59%
Early apoptosis % Q3 (Colo320 cells; 10 µM): 12.4%
Late apoptosis and necrosis % Q2 (Colo320 cells; 10 µM): 31.5%
Cell death % Q1 (Colo320 cells; 20 µM): 7.85%
Early apoptosis % Q3 (Colo320 cells; 20 µM): 11.1%
Late apoptosis and necrosis % Q2 (Colo320 cells; 20 µM): 26.1%

N.N.[Cl][Pt][Cl] [cisplatin, reference compound]
Cell death % Q1 (Colo320 cells; 15 µM): 1.64%
Early apoptosis % Q3 (Colo320 cells; 15 µM): 1.68%
Late apoptosis and necrosis % Q2 (Colo320 cells; 15 µM): 2.24%
Cell death % Q1 (Colo320 cells; 30 µM): 0.79%
Early apoptosis % Q3 (Colo320 cells; 30 µM): 4.90%
Late apoptosis and necrosis % Q2 (Colo320 cells; 30 µM): 4.07%

COc1cccc2c1C(=O)c1c(O)c3c(c(O)c1C2=O)C[C@@](O)(C(=O)CO)C[C@@H]3O[C@H]1C[C@H](N)[C@H](O)[C@H](C)O1 [doxorubicin]
IC50 (Colo320 [3]): 3120 nM
IC50 (Colo205 [4]): 3280 nM

NC(=O)NO [hydroxyurea]
redox potential [5]: +0.724 V

NC(=S)N/N=C/c1ncccc1N [triapine, 3-aminopyridine-2-carboxaldehyde TSC, reference compound]
log D7.4 [6]: +0.85
IC50 [7]: 400 to 2600 nM
mR2 inhibition potency order (mouse R2 RNR protein; equimolar 20 μM compound and mR2): HL^1 ≈ triapine > HL^3 > HL^2
IC50 (Colo320 [1]): 4210 ± 460 nM
IC50 (Colo205 [2]): 3340 ± 120 nM
